Measured values as given in patent US7815803B2, “Preparation of samples for LC-MS/MS using magnetic particles” (Roche Diagnostics Operations, Inc., priority 2007, dated 2010).

How the values were obtained:
[1] = in vivo; cited from earlier work
[2] = in vitro; cited from earlier work
[3] = Pooled serum from itraconazole treated patients, LC-MS/MS validation; type: in vivo, human; conditions: n=9
Description: A validation protocol was performed in three independent analytical series. In each series a five-point calibration was performed using a commercially available calibration material for itraconazole measurement (2,000 μg/l, 1,000 μg/l, 500 μg/l, 250 μg/l, and 125 μg/l; Recipe, Munich, Germany). Aliquots of pooled serum from itraconazole treated patients were analyzed in triplicate in each series to calculate a total coefficient of variation (n=9). Commercially available quality control materials (ClinCheck, Recipe, Munich, Germany) in two concentration ranges (target concentrations 150 μg/l, and 2,900 μg/l) were analyzed in the three series.
Linear calibration lines (r>0.99) were obtained in all series. For the pooled serum a total coefficient of variation of 3.4% was observed (mean concentration 380 μg/l); all quality control samples were found within the predefined accepted ranges (±10% of the target concentrations).

| Compound | therapeutic trough concentration [1] [µg/L] | potency relative to cyclosporin [2] | mean concentration in pooled serum [3] [ng/mL] |
| --- | --- | --- | --- |
| COc1c(C)c2c(c(O)c1C/C=C(\C)CCC(=O)OCCN1CCOCC1)C(=O)OC2 [Mycophenolate mofetil, mycophenolate mofetil] | 1000 to 3500 |  |  |
| CO[C@H]1C[C@@H]2CC[C@@H](C)[C@@](O)(O2)C(=O)C(=O)N2CCCC[C@H]2C(=O)O[C@H]([C@H](C)C[C@@H]2CC[C@@H](O)[C@H](OC)C2)CC(=O)[C@H](C)/C=C(\C)[C@@H](O)[C@@H](OC)C(=O)[C@H](C)C[C@H](C)/C=C/C=C/C=C/1C [Sirolimus, sirolimus] | 5 to 15 |  |  |
| C=CC[C@@H]1/C=C(\C)C[C@H](C)C[C@H](OC)[C@H]2O[C@@](O)(C(=O)C(=O)N3CCCC[C@H]3C(=O)O[C@H](/C(C)=C/[C@@H]3CC[C@@H](O)[C@H](OC)C3)[C@H](C)[C@@H](O)CC1=O)[C@H](C)C[C@@H]2OC [Tacrolimus, tacrolimus] | 5 to 20 | up to 100 times |  |
| CCC(C)n1ncn(-c2ccc(N3CCN(c4ccc(OCC5COC(Cn6cncn6)(c6ccc(Cl)cc6Cl)O5)cc4)CC3)cc2)c1=O (centres unmarked) [itraconazole] |  |  | 380 |
